# Test results from patent publication US12180226B2, “Spirotricycle RIPK1 inhibitors and methods of uses thereof” (Merck Sharp & Dohme LLC, priority 2021, dated 2024).
# Target: RIPK1 (recombinant GST-RIPK1 kinase domain, residues 1-327) (Homo sapiens (Human), UniProt Q13546)
# Test: RIPK1-ADP-Glo Enzymatic Assay
# Format: biochemical
# Conditions: ADP-Glo; 25 nM GST-RIPK1, 300 μM ATP; assay lower limit ~25 nM; read-out: RIPK1 V0 Ec50
# Procedure, shortened: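 ADP-Glo luminescence read after 150 min kinase reaction (300 μM ATP, 3 μM dephosphorylated MBP) using 25 nM Sf21-made GST-kinase domain (1-327), preincubated 30 min with compound. HEPES pH 7.3, 1% DMSO; ten-point 1:3 series from 100000 nM, EC50 via four-parameter sigmoidal regression.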
# RIPK1 (recombinant GST-RIPK1 kinase domain, residues 1-327), sequence (Q13546 1-327): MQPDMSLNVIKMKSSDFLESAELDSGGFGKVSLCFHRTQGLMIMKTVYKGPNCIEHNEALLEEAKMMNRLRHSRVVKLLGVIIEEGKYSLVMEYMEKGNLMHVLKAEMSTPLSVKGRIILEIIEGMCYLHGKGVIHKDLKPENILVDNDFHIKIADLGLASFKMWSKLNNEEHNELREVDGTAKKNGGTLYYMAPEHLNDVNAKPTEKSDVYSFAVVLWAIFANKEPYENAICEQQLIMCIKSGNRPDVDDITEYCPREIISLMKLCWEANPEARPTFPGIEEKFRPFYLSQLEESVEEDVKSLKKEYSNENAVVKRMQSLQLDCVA
row,SMILES,EC50 [nM]
1,"O=C1N2[C@@H](CC[C@H]2c2ccccc2)OC12CCN(c1csc(C(F)F)c1)CC2 [Example 11.26, (5′S,7a′R)-1-[5-(difluoromethyl)thiophen-3-yl]-5′-phenyltetrahydro-3′H-spiro[piperidine-4,2′-pyrrolo[2,1-b][1,3]oxazol]-3′-one]",132
2,"COC(=O)c1cc(C)c(N2CCC3(CC2)O[C@@H]2CC[C@@H](c4ccccc4)N2C3=O)nc1C#N [Example 4.188, methyl 2-cyano-5-methyl-6-[(5′S,7a′R)-3′-oxo-5′-phenyltetrahydro-1H,3′H-spiro[piperidine-4,2′-pyrrolo[2,1-b] [1,3]oxazol]-1-yl]pyridine-3-carboxylate]",540
3,"O=C(c1ccccc1F)N1CCC2(CC1)O[C@@H]1CC[C@@H](c3cc(F)cc(F)c3)N1C2=O [Example 1.9, (5′S,7a′R)-5′-(3,5-difluorophenyl)-1-(2-fluorobenzene-1-carbonyl)tetrahydro-3′H-spiro[piperidine-4,2′-pyrrolo[2,1-b] [1,3]oxazol]-3′-one]",< 25
4,"O=C1N2[C@@H](CC[C@H]2c2ccccc2)OC12CCN(c1ncnn3ccnc13)CC2 [Example 4.227, (5′S,7a′R)-1-(imidazo[2,1-f] [1,2,4]triazin-4-yl)-5′-phenyltetrahydro-3′H-spiro[piperidine-4,2′-pyrrolo[2,1-b] [1,3]oxazol]-3′-one]",27.3
5,"O=C1N2[C@@H](CC[C@H]2c2ccccc2)OC12CCN(c1ccnc(C3CC3)n1)CC2 [Example 11.15, (5′S,7a′R)-1-(2-cyclopropylpyrimidin-4-yl)-5′-phenyltetrahydro-3′H-spiro[piperidine-4,2′-pyrrolo[2,1-b][1,3]oxazol]-3′-one]",81.7
6,"COC(=O)c1cnc(N2CCC3(CC2)O[C@@H]2CC[C@@H](c4ccccc4)N2C3=O)nc1C [Example 4.189, methyl 4-methyl-2-[(5′S,7a′R)-3′-oxo-5′-phenyltetrahydro-1H,3′H-spiro[piperidine-4,2′-pyrrolo[2,1-b] [1,3]oxazol]-1-yl]pyrimidine-5-carboxylate]",25.4
7,"Cc1ccc(C(=O)N2CCC3(CC2)O[C@@H]2CC[C@@H](c4cc(F)cc(F)c4)N2C3=O)nc1C [Example 6.93, (5′S,7a′R)-5′-(3,5-difluorophenyl)-1-(5,6-dimethylpyridine-2-carbonyl)tetrahydro-3′H-spiro[piperidine-4,2′-pyrrolo[2,1-b] [1,3]oxazol]-3′-one]",192
8,"O=C1N2[C@@H](CC[C@H]2c2ccccc2)OC12CCN(c1nc(-c3ccccn3)cs1)CC2 [Example 11.4, (5′S,7a′R)-5′-phenyl-1-[4-(pyridin-2-yl)-1,3-thiazol-2-yl]tetrahydro-3′H-spiro[piperidine-4,2′-pyrrolo[2,1-b][1,3]oxazol]-3′-one]",61.1
9,"O=C(c1cccc(-c2nnco2)c1)N1CCC2(CC1)O[C@@H]1CC[C@@H](c3cc(F)cc(F)c3)N1C2=O [Example 6.64, (5′S,7a′R)-5′-(3,5-difluorophenyl)-1-[3-(1,3,4-oxadiazol-2-yl)benzene-1-carbon-yl]tetrahydro-3′H-spiro[piperidine-4,2′-pyrrolo[2,1-b][1,3]-oxazol]-3′-one]",< 25
10,"C#Cc1cccc(C(=O)N2CCC3(CC2)O[C@@H]2CC[C@@H](c4cc(F)cc(F)c4)N2C3=O)c1 [Example 5.25, (5′S,7a′R)-5′-(3,5-difluoro-phenyl)-1-(3-ethynyl-benzoyl)tetrahydro-3′H-spiro[piperidine-4,2′-pyrrolo[2,1-b]oxazol]-3′-one]",< 25
11,"O=C(c1ncoc1C1CC1)N1CCC2(CC1)O[C@@H]1CC[C@@H](c3cc(F)cc(F)c3)N1C2=O [Example 6.24, (5′S,7a′R)-1-(5-cyclo-propyl-1,3-oxazole-4-carbonyl)-5′-(3,5-difluorophenyl)tetra-hydro-3′H-spiro[piperi-dine-4,2′-pyrrolo[2,1-b][1,3]oxazol]-3′-one]",32.3
12,"COC(=O)c1cnc(N2CCC3(CC2)O[C@@H]2CC[C@@H](c4ccccc4)N2C3=O)cc1Cl [Example 4.211, methyl 4-chloro-6-[(5′S,7a′R)-3′-oxo-5′-phenyltetrahydro-1H,3′H-spiro[piperidine-4,2′-pyrrolo[2,1-b] [1,3]oxazol]-1-yl]pyridine-3-carboxylate]",< 25
13,"O=C(c1cccc(F)c1)N1CCC2(CC1)O[C@@H]1CC[C@@H](c3cc(F)cc(F)c3)N1C2=O [Example 7.5, (5′S,7a′R)-5′-(3,5-difluorophenyl)-1-(3-fluorobenzene-1-carbonyl)tetrahydro-3′H-spiro[piperidine-4,2′-pyrrolo[2,1-b][1,3]oxazol]-3′-one]",< 25
14,"O=C1N2[C@@H](CC[C@H]2c2cc(F)cc(F)c2)OC12CCN(c1ncc(Cl)cn1)CC2 [Example 4.63, (5′S,7a′R)-1-(5-chloropyrimidin-2-yl)-5′-(3,5-difluorophenyl)tetrahydro-3′H-spiro[piperidine-4,2′-pyrrolo[2,1-b] [1,3]oxazol]-3′-one]",48.6
15,"O=C1N2[C@@H](CC[C@H]2c2cnccn2)OC12CCN(c1ccnc3c(F)cnn13)CC2 [Example 4.140, (5′S,7a′R)-1-(3-fluoropyrazolo[1,5-a]pyrimidin-7-yl)-5′-(pyrazin-2-yl)tetrahydro-3′H-spiro[piperidine-4,2′-pyrrolo[2,1-b] [1,3]oxazol]-3′-one]",25.6
16,"N#Cc1cccc(C(=O)N2CCC3(CC2)O[C@@H]2CC[C@@H](c4ccccc4)N2C3=O)c1F [Example 6.140, 2-fluoro-3-[(5′S,7a′R)-3′-oxo-5′-phenyltetra-hydro-1H,3′H-spiro [piperidine-4,2′-pyrrolo[2,1-b][1,3]oxazole]-1-carbonyl] benzonitrile]",47.1
17,"O=C1N2[C@@H](CC[C@H]2c2ccccc2F)OC12CN(S(=O)(=O)c1ccc(F)cc1)C2 [Example 8.7, (5′S,7a′R)-5′-(2-fluorophenyl)-1-((4-fluorophenyl)sulfonyl) tetrahydro-3′H-spiro[azetidine-3,2′-pyrrolo[2,1-b]oxazol]-3′-one]",345
18,"O=C1N2[C@@H](CC[C@H]2c2ccccc2)OC12CCN(c1ccc(-n3ccnc3)nn1)CC2 [Example 11.18, (5′S,7a′R)-1-[6-(1H-imidazol-1-yl)pyridazin-3-yl]-5′-phenyltetrahydro-3′H-spiro[piperidine-4,2′-pyrrolo[2,1-b][1,3]oxazol]-3′-one]",93
19,"O=C(c1ccsc1-n1nccn1)N1CCC2(CC1)O[C@@H]1CC[C@@H](c3cc(F)cc(F)c3)N1C2=O [Example 6.68, (5′S,7a′R)-5′-(3,5-difluorophenyl)-1-[2-(2H-1,2,3-triazol-2-yl)thiophene-3-carbonyl]tetrahydro-3′H-spiro[piperidine-4,2′-pyrrolo[2,1-b] [1,3]oxazol]-3′-one]",212
20,"O=C1N2[C@@H](CC[C@H]2c2ccccc2)OC12CCN(c1ccc(Cl)c3ccnn13)CC2 [Example 4.153, (5′S,7a′R)-1-(4-chloropyrazolo[1,5-a]pyridin-7-yl)-5′-phenyltetrahydro-3′H-spiro[piperidine-4,2′-pyrrolo[2,1-b] [1,3]oxazol]-3′-one]",< 25
